Where a name gives a salt, the structure may show the parent alone.

What all share (type): physicochemical
Series [1] is described as follows: Aqueous solubility of L-thyroxine free acid in the presence of γ-cyclodextrin. As to the method:
This poor solubility can be affected positively by employing γ-cyclodextrin. The effect of γ-cyclodextrin as to the aqueous solubility of thyroxine acid is shown by the results in the table below:
Aqueous solubility of thyroxine free acid in the
presence of γ-cyclodextrin at 25° C. studied on two

The nature of series [2]: Aqueous solubility of L-thyroxine sodium salt in the presence of cyclodextrins. The text has this: Interaction between L-thyroxine sodium and cyclodextrins in presence of water.
One evidence of the interaction between L-thyroxine and cyclodextrins is that the cyclodextrins increase the aqueous solubility of the thyroxine as shown in Table 1.
Solubility of L-thyroxine sodium salt in the presence of CDs (mg/ml)

Series [3] can be described thus: Physical stability of aqueous gels and solutions on storage. As to the method: 150 mg of a water swellable polymer (i.e. Klucel; Hercules Corp. USA) was added.
The aqueous gel containing γ-cyclodextrin solubilized thyroxine was prepared by mixing at room temperature 150 mg of Pionier NP37 (polyacrylicacid) with 10 ml of 10% aqueous γ-cyclodextrin solution containing 300 mg solubilized L-thyroxine-Na.
10 ml of the aqueous Pionier NP37-thyroxine/γ-cyclodextrin formulation was stored in sealed polyethylene bags as well as in capped glass vials under normal laboratory conditions (22° C. exposed to day light) for two weeks and the turbidity of the samples was investigated.

As for `N[C@@H](Cc1cc(I)c(Oc2cc(I)c(O)c(I)c2)c(I)c1)C(=O)O` [L-thyroxine free acid, 0-(4-hydroxy-3,5-diiodophenyl)-3,5-diiodotyrosine], the “enhancement of aqueous solubility of the acid form of thyroxine” value in series [1] (cyclodextrin 20% by weight) is “enhanced by about ten-fold”. The solubility (as a rule, the concentration that dissolves in the medium under given conditions) in series [1] (water with γ-cyclodextrin, γ-cyclodextrin 5 g/100 ml, 25° C., 1-st run, read-out: solubility of thyroxine free acid) is 400 µg/mL; in series [1] (water with γ-cyclodextrin, γ-cyclodextrin 5 g/100 ml, 25° C., 2-nd run, read-out: solubility of thyroxine free acid), 379 µg/mL; in series [1] (water with γ-cyclodextrin, γ-cyclodextrin 10 g/100 ml, 25° C., 1-st run, read-out: solubility of thyroxine free acid) it was 646 µg/mL; in series [1] (water with γ-cyclodextrin, γ-cyclodextrin 10 g/100 ml, 25° C., 2-nd run, read-out: solubility of thyroxine free acid), 652 µg/mL; in series [1] (water with γ-cyclodextrin, γ-cyclodextrin 12 g/100 ml, 25° C., 1-st run, read-out: solubility of thyroxine free acid), 765 µg/mL; in series [1] (water with γ-cyclodextrin, γ-cyclodextrin 12 g/100 ml, 25° C., 2-nd run, read-out: solubility of thyroxine free acid), 800 µg/mL. The solubility in series [1] (water with γ-cyclodextrin, γ-cyclodextrin 15 g/100 ml, 25° C., 1-st run, read-out: solubility of thyroxine free acid) was 1020 µg/mL; in series [1] (water with γ-cyclodextrin, γ-cyclodextrin 15 g/100 ml, 25° C., 2-nd run, read-out: solubility of thyroxine free acid), 1000 µg/mL; in series [1] (water with γ-cyclodextrin, γ-cyclodextrin 20 g/100 ml, 25° C., 1-st run, read-out: solubility of thyroxine free acid) it was 1390 µg/mL; in series [1] (water with γ-cyclodextrin, γ-cyclodextrin 20 g/100 ml, 25° C., 2-nd run, read-out: solubility of thyroxine free acid), 1440 µg/mL; in series [1] (water, without cyclodextrin, read-out: aqueous solubility of the free acid form of L-thyroxine), 110 to 150 µg/mL; in series [1] (water, γ-cyclodextrin 0 g/100 ml, 25° C., 1-st run, read-out: solubility of thyroxine free acid), 110 µg/mL. Further, the solubility in series [1] (water, γ-cyclodextrin 0 g/100 ml, 25° C., 2-nd run, read-out: solubility of thyroxine free acid) was 150 µg/mL.
With `N[C@@H](Cc1cc(I)c(Oc2cc(I)c(O)c(I)c2)c(I)c1)C(=O)O` [L-thyroxine sodium salt, Levothyroxine sodium], the solubility in series [2] (water with 2-hydroxypropylated-β-cyclodextrin, 2-hydroxypropylated-β-cyclodextrin 1.0%) is 1440 µg/mL; in series [2] (water with 2-hydroxypropylated-β-cyclodextrin, 2-hydroxypropylated-β-cyclodextrin 5.0%), 2900 µg/mL; in series [2] (water with 2-hydroxypropylated-β-cyclodextrin, 2-hydroxypropylated-β-cyclodextrin 7.0%), 2740 µg/mL; in series [2] (water with 2-hydroxypropylated-β-cyclodextrin, 2-hydroxypropylated-β-cyclodextrin 10.0%), 2770 µg/mL; in series [2] (water with 2-hydroxypropylated-β-cyclodextrin, 2-hydroxypropylated-β-cyclodextrin 12.0%), 3050 µg/mL; in series [2] (water with 2-hydroxypropylated-β-cyclodextrin, 2-hydroxypropylated-β-cyclodextrin 15.0%) it was 3140 µg/mL. Further, the solubility in series [2] (water with 2-hydroxypropylated-β-cyclodextrin, 2-hydroxypropylated-β-cyclodextrin 3.0%) is 3100 µg/mL; in series [2] (water with heptakis-2,6-di-o-methyl-β-cyclodextrin, heptakis-2,6-di-O-methyl-β-cyclodextrin 1.0%) it was 3160 µg/mL; in series [2] (water with heptakis-2,6-di-o-methyl-β-cyclodextrin, heptakis-2,6-di-O-methyl-β-cyclodextrin 3.0%), 5500 µg/mL; in series [2] (water with randomly-methylated-β-cyclodextrin, randomly-methylated-β-cyclodextrin 1.0%) it was 3700 µg/mL; in series [2] (water with randomly-methylated-β-cyclodextrin, randomly-methylated-β-cyclodextrin 5.0%), 8360 µg/mL; in series [2] (water with randomly-methylated-β-cyclodextrin, randomly-methylated-β-cyclodextrin 7.0%) it was 9330 µg/mL. Further, the solubility in series [2] (water with randomly-methylated-β-cyclodextrin, randomly-methylated-β-cyclodextrin 10.0%) is 10300 µg/mL; in series [2] (water with randomly-methylated-β-cyclodextrin, randomly-methylated-β-cyclodextrin 12.0%), 13300 µg/mL; in series [2] (water with randomly-methylated-β-cyclodextrin, randomly-methylated-β-cyclodextrin 15.0%), 16800 µg/mL; in series [2] (water with randomly-methylated-β-cyclodextrin, randomly-methylated-β-cyclodextrin 3.0%) it was 6150 µg/mL; in series [2] (water with γ-cyclodextrin, γ-cyclodextrin 1.0%) it was 5480 µg/mL; in series [2] (water with γ-cyclodextrin, γ-cyclodextrin 5.0%) it was 16900 µg/mL. Also, the solubility was found to be 26600 µg/mL in series [2] (water with γ-cyclodextrin, γ-cyclodextrin 7.0%); 35100 µg/mL in series [2] (water with γ-cyclodextrin, γ-cyclodextrin 12.0%); 44200 µg/mL in series [2] (water with γ-cyclodextrin, γ-cyclodextrin 15.0%); 12100 µg/mL in series [2] (water with γ-cyclodextrin, γ-cyclodextrin 3.0%); 2290 µg/mL in series [2] (water, 1.0% maltosyl-β-cyclodextrin, Maltosyl-β-cyclodextrin 1.0%); 2000 µg/mL in series [2] (water, 2-hydroxypropylated-β-cyclodextrin column, 0% (no CDs)). In addition, the solubility in series [2] (water, 3.0% maltosyl-β-cyclodextrin, Maltosyl-β-cyclodextrin 3.0%) was determined as 2480 µg/mL; in series [2] (water, 5.0% dimethyl-β-cyclodextrin, heptakis-2,6-di-O-methyl-β-cyclodextrin 5.0%), 7000 µg/mL; in series [2] (water, 5.0% maltosyl-β-cyclodextrin, Maltosyl-β-cyclodextrin 5.0%), 2320 µg/mL; in series [2] (water, 7.0% dimethyl-β-cyclodextrin, heptakis-2,6-di-O-methyl-β-cyclodextrin 7.0%), 7620 µg/mL; in series [2] (water, 7.0% maltosyl-β-cyclodextrin, Maltosyl-β-cyclodextrin 7.0%) it was 2940 µg/mL; in series [2] (water, 10.0% maltosyl-β-cyclodextrin, Maltosyl-β-cyclodextrin 10.0%), 2730 µg/mL. Moreover, the solubility was determined as 12100 µg/mL in series [2] (water, 12.0% dimethyl-β-cyclodextrin, heptakis-2,6-di-O-methyl-β-cyclodextrin 12.0%); 2800 µg/mL in series [2] (water, 12.0% maltosyl-β-cyclodextrin, Maltosyl-β-cyclodextrin 12.0%); 14200 µg/mL in series [2] (water, 15.0% dimethyl-β-cyclodextrin, heptakis-2,6-di-O-methyl-β-cyclodextrin 15.0%); 2680 µg/mL in series [2] (water, 15.0% maltosyl-β-cyclodextrin, Maltosyl-β-cyclodextrin 15.0%); 2000 µg/mL in series [2] (water, Maltosyl-β-cyclodextrin column, 0% (no CDs)); 2000 µg/mL in series [2] (water, heptakis-2,6-di-O-methyl-β-cyclodextrin column, 0% (no CDs)). Besides, the solubility in series [2] (water, randomly-methylated-β-cyclodextrin column, 0% (no CDs)) was 2000 µg/mL; in series [2] (water, γ-cyclodextrin column, 0% (no CDs)), 2000 µg/mL. Further, the “improvement of aqueous solubility of L-thyroxine sodium” value in series [2] (γ-cyclodextrin, among unsubstituted cyclodextrins) is listed as “improve the aqueous solubility of L-thyroxine sodium most remarkably”.
Take `OC[C@H]1O[C@@H]2O[C@H]3[C@H](O)[C@@H](O)[C@@H](O[C@H]4[C@H](O)[C@@H](O)[C@@H](O[C@H]5[C@H](O)[C@@H](O)[C@@H](O[C@H]6[C@H](O)[C@@H](O)[C@@H](O[C@H]7[C@H](O)[C@@H](O)[C@@H](O[C@H]8[C@H](O)[C@@H](O)[C@@H](O[C@H]9[C@H](O)[C@@H](O)[C@@H](O[C@H]1[C@H](O)[C@H]2O)O[C@@H]9CO)O[C@@H]8CO)O[C@@H]7CO)O[C@@H]6CO)O[C@@H]5CO)O[C@@H]4CO)O[C@@H]3CO` [γ-cyclodextrin]: the precipitate formation result in series [3] (aqueous γ-cyclodextrin solution without L-thyroxine-Na, after one week of storage) is “small amount of white precipitate formation”. Further, in series [3] (clear aqueous γ-cyclodextrin solutions without L-thyroxine-Na, or L-thyroxine-Na/γ-cyclodextrin hydrogels), the “haze / precipitate formation on storage” value is reported as “hazy within three days”.
On to thyroxine, for which, in series [2], the “effect on the solubility of thyroxine” value is “practically no effect”; the “improvement of aqueous solubility of thyroxine” value is given as “did not significantly improve the aqueous solubility of thyroxine”; the “solubilizing potency of methylated-β-cyclodextrins for thyroxine versus γ-cyclodextrin” value is reported as “less potent solubilizers of thyroxine, than the chemically non-modified γ-cyclodextrin”.

The values above are taken from patent US5856359A, “Thyroxine/cyclodextrin complexes and pharmaceutical compositions containing the same” (Hexal AG, priority 1995, dated 1999).
